{
  "source": "patent US20070238761A1",
  "about": "“Use of pyridoxamine to treat and/or prevent disease processes” (Vanderbilt University, priority 2005, published 2007)",
  "key": {"collagen IV": {"tested_on": "collagen IV", "assay": "Formation of CML on collagen IV coated plates incubated with glucose (ELISA, anti-CML antibody)", "type": "biochemical", "details": "5 mM and 30 mM glucose; 200 mM sodium phosphate buffer, pH 7.5, 37° C., 40 days; FIG. 1B", "description": "The secondary antibody used in the assay was an alkaline phosphatase conjugated goat anti-rabbit IgG from Sigma-Aldrich Co. (St. Louis, Mo., United States of America). Incubations were carried out in 200 mM sodium phosphate buffer, pH 7.5 at 37° C. for 40 days. […]"}, "diabetic rat model": {"tested_on": "diabetic rat model", "details": "similar or higher PM doses than 180 mg/day/kg body wt.; long-term; Degenhardt et al. 2002, Stitt et al. 2002; cited from earlier work"}, "[1]": {"tested_on": "gentamicin and glycerol rat models of ARF", "assay": "Gentamicin and glycerol rat models of ARF treated with PM", "type": "in vivo, Sprague-Dawley rats", "details": "ARF+PM group compared to ARF group; PM 180 mg/day/kg body weight in drinking water", "from_the_text": "The gentamicin and the glycerol rat models of ARF. There are several animal models of ARF, each having its specific advantages and limitations (see e.g., Bellomo et al. (2004) Group Crit Care 8:R204-12). Two such models are the gentamicin and the glycerol models. […] Importantly, the gentamicin and the glycerol models are highly relevant, representing two of the major clinical causes of ARF: antibiotic toxicity and rhabdomyolosis, respectively (Bellomo et al. (2004) Group Crit Care 8:R204-12). Examining the effects of PM in two different models also helps to minimize possible model-specific adverse effects.\nThe primary outcome measured is serum creatinine level at the end of PM treatment. […]\nTwo-month-old male Sprague-Dawley rats (250-300 g) are housed individually in metabolic cages. […] Animals are fed standard powdered stock ration, and their body weights are monitored daily. […]\nFor PM experiments, rats are randomized into 4 groups based on their baseline serum creatinine levels: (a) the Control group (no ARF is induced); (b) the PM group (no ARF is induced, but PM is given in drinking water); (c) the ARF group; and (d) the ARF+PM group. The experiment is terminated when the serum creatinine in the ARF group reaches its maximum level as determined in the model optimization studies described hereinabove. […]"}, "[2]": {"assay": "Reactive PM amino groups in incubations with ethylene glycol (TNBS assay)", "type": "physicochemical", "details": "24 hours at room temperature", "description": "Effect of pyridoxamine treatment on urinary oxalate excretion. […] With the proposed experimental design, interference between PM and ethylene glycol might have been possible because both were administered in drinking water. If significant spontaneous oxidation of ethylene glycol occurs in solution, the resulting carbonyl moieties might react with the PM amino group. To address this question, the amount of reactive PM amino groups was measured in incubations with ethylene glycol using TNBS assay (Spadaro et al. (1979) Anal Biochem 96:317-321)."}, "[3]": {"tested_on": "8-F2-isoprostane (8-iso-PGF2) in the kidney", "assay": "Carbon tetrachloride rat model of oxidative stress, 8-F2-isoprostane in kidney by GC-MS", "type": "in vivo", "details": "CCl4 vs. CCl4+PM, p=0.066, not statistically significant; FIG. 5", "description": "FIG. 5 is a plot depicting the effect of PM administration on the levels of a marker of oxidative stress (8-F2-lsoP) in the carbon tetrachloride (CCl4) rat model disclosed herein as determined by gas-chromatography/mass-spectrometry (GC-MS).\nBased on the results of the in vitro experiments disclosed herein, it was hypothesized that PM might reduce oxidative stress in the kidney in vivo. This hypothesis was evaluated using the carbon tetrachloride rat model of oxidative stress (see Kadiiska et al. (2005) Free Radic Biol Med 38:698-710). The effect of PM was determined by measuring the levels of an oxidative stress marker, 8-F2-isoprostane (8-iso-PGF2) in the kidney using gas-chromatography/mass-spectrometry (see Morrow et al. (1999) Methods Enzymol 300:3-12)."}, "[4]": {"tested_on": "Human glomerular visceral epithelial cells (podocytes)", "assay": "Cisplatin-induced podocyte cell death, viability by Rapid Cell Proliferation Kit", "type": "cell-based", "details": "22 hours of treatment; RPMI medium with 1% FBS; FIG. 4", "method": "Human glomerular visceral epithelial cells (podocytes) were plated at 8,000 cells/well (96-well plate) and incubated for 24 hours in RPMI medium supplemented with 1% FBS. Following this incubation cells were treated as indicated without changing the medium. The treatment continued for 22 hours and cell viability was measured using Rapid Cell Proliferation Kit (CALBIOCHEM®), a unit of EMD Biosciences, Inc. San Diego, Calif., United States of America)."}, "[5]": {"tested_on": "urinary oxalate excretion", "assay": "Ethylene glycol rat model of experimental hyperoxaluria with PM in drinking water", "type": "in vivo, Sprague-Dawley male rats", "description": "FIGS. 6A and 6B are graphs depicting the effect of PM treatment on urinary oxalate excretion in animals with experimental hyperoxalura. Sprague-Dawley male rats (49-52 days old) were randomized on Day 1 to receive either ethylene glycol (0.75% v/v in drinking water (450 mg/day/kg body wt.); EG group) or no treatment (Control group). After Day 14, animals within each group were pair-matched according to their oxalate level. One member of each pair was then randomly assigned to receive PM (3 mg/ml or 180 mg/day/kg body wt.) either in drinking water (PM group) or in 0.75% ethylene glycol (EG+PM group). Urine samples were collected under toluene (to inhibit bacteria growth) in 50 ml tubes with hydrochloric acid to minimize spontaneous breakdown of urinary ascorbic acid to oxalate. Urinary oxalate was measured as described under Methods. Each symbol represents mean value±S.E. (n=5); at the time points indicated by asterisks, differences between the EG group and the EG+PM group were statistically significant (p<0.05). The data points on the graphs correspond to the following: ●—Control group; ▪—EG group; —PM group; ⋄—+EG+PM group.\nIn FIG. 6A, the results of PM given continuously starting from Day 14 are presented.\nIn FIG. 6B, the results for a separate experiment in which PM treatment was started on Day 14 and was discontinued on Day 28 are presented. In this experiment, the elevated levels of oxalate excretion in Control group on Day 3 are most likely related to animal adaptation. Note that the oxalate levels went down and leveled off before the beginning of PM treatment.\nEthylene glycol model of hyperoxaluria and pyridoxamine treatment. An established rat model of experimental hyperoxaluria, the ethylene glycol (EG) model (see e.g., Lyon et al. (1996) Invest Uro14:143-151; Khan (1997) World J Urol 05:236-243) was employed. […] Because ethylene glycol is converted to glycolaldehyde, an intermediate in glyoxylate pathway, its administration results in increased urinary oxalate levels (Lyon et al. (1996) Invest Urol 4:143-151; Khan (1997) World J Urol 05:236-243). […]\nFor uniform administration of EG and PM, water supply to all animals was limited to 45 ml/day. […] The length of treatment was determined based on the fact that after about 35 days of experimental hyperoxaluria rats may have some evidence of microscopic nephrolithiasis, but their renal function remains normal (Khan (1997) World J Urol 05:236-243). […]"}, "[6]": {"tested_on": "BSA-Amadori glycation intermediate", "assay": "Conversion of BSA-Amadori glycation intermediate to CML, measured with anti-CML antibody", "type": "biochemical", "details": "0.1, 1, 15 mM PM; 200 mM sodium phosphate buffer, pH 7.5, 37° C.; FIG. 1A", "description": "FIG. 1A is a graph depicting the conversion of Amadori intermediate to CML measured using anti-CML antibody.\nIsolated BSA-Amadori glycation intermediate was formed at diabetic (30 mM) concentration of glucose. The conversion of Amadori intermediate to the AGE N^ε-carboxymethyllysine (CML) was measured using an anti-CML antibody."}},
  "data": [
    {"smiles": "Cc1ncc(CO)c(CN)c1O", "note": "[PM, 4-(aminomethyl)-5-(hydroxymethyl)-2-methyl-pyridin-3-ol]", "values": [
      {"measurement": "formation of CML on collagen IV", "setting": "collagen IV", "result": "inhibited the formation of CML on collagen IV"},
      {"measurement": "therapeutic effect", "setting": "diabetic rat model", "result": "had therapeutic effects"},
      {"measurement": "Creatinine levels at the end of experiment (primary outcome)", "setting": "[1]", "result": "envisioned to be significantly lower"},
      {"measurement": "degree of renal tubular pathology at the end of experiment (secondary outcome)", "setting": "[1]", "result": "envisioned to be lower"},
      {"measurement": "change in reactive PM amino groups in incubations with ethylene glycol", "setting": "[2]", "result": "No change in amino groups was detected"},
      {"measurement": "level of the isoprostane marker (8-F2-isoprostane) in the kidney", "setting": "[3]", "result": "tendency toward lowering the level of the isoprostane marker"},
      {"measurement": "podocyte viability under cisplatin treatment", "setting": "[4]", "result": "protected cell viability in a concentration-dependent manner"},
      {"measurement": "urinary oxalate excretion", "setting": "[5]; EG+PM group vs EG group, PM 180 mg/day/kg body wt. in drinking water continuously from Day 14, FIG. 6A", "result": "dramatic and sustained decrease in urinary oxalate excretion"},
      {"measurement": "urinary oxalate excretion after PM was discontinued", "setting": "[5]; PM started Day 14, discontinued Day 28, FIG. 6B", "result": "increase in urinary oxalate excretion to the levels found in untreated hyperoxaluric animals"},
      {"measurement": "weight gain", "setting": "[5]; all experimental groups, duration of the experiment, PM 180 mg/day/kg body wt.", "result": "No significant differences in weight gain"},
      {"measurement": "adverse effects", "setting": "[5]; all experimental groups, PM 180 mg/day/kg body wt.", "result": "no adverse effects"},
      {"measurement": "conversion of the BSA-Amadori glycation intermediate to BSA-CML", "setting": "[6]", "result": "inhibited the conversion of the BSA-Amadori glycation intermediate to BSA-CML"}
    ]}
  ]
}
